Data taken from patent publication US8198098B2, “Optical measurement method for determining the pH of a medium using ageladine A as a fluorescent pH indicator” (Stiftung Alfred-Wegener-Institut fuer Polar-und …, priority 2007, dated 2012).
Entries after “also recorded” stand apart in the source; their conditions may differ.

Assays:
[1] = test system: PC-12 cells; assay: staining of cells with ageladine A and measurement of intracellular pH; type: cell-based, rat; details: PC-12 cells incubated with ageladine A, excitation 380 nm
Method: FIGS. 2A, 2B show images, at 400-times magnification, of cells (PC-12 cells, rat, deposited at DSMZ) incubated with ageladine A and stained by means of the same. Excitation took place using UV light with a wavelength of 380 nm.
The fluorescence ratio value (340 nm/380 nm) is plotted over time (time in s). The various pHs of the buffer solution are marked as parameters on the graph. It can clearly be recognized that the fluorescence emission follows the extracellular increase of the pH of the solution in a wide range (pH6.5 to pH3). The change of the intracellular pH is only a few tenths around pH7, as a result of which a very high measurement resolution of the pH indicator results.

[2] = fluorescence intensity of ageladine A as a function of the pH of the solution; type: physicochemical
Description: The optical measurement method according to an embodiment of the present invention includes an alternative fluorescent pH indicator based on ageladine A. Ageladine A is a known natural marine substance in the form of a pyrrole-imidazole alkaloid which has heretofore been used exclusively for medical purposes. Ageladine A can be obtained both from marine sponges and produced synthetically. It is therefore readily possible, by means of the total syntheses described, to prepare large quantities of ageladine A without having to have recourse to marine sponges. […] When using ageladine A as a fluorescent pH indicator, pH changes of the medium to be investigated between pH4 and pH9 can be reliably optically indicated by means of a changeable fluorescence intensity in such a manner that the emitted fluorescence intensity increases as the pH falls. […] Advantageously, samples that have been taken (in vitro), but also living cells, tissue and entire organisms (in vivo) can be incubated with ageladine A as fluorescent pH indicator and stained in this manner by means of the fluorescence in the green range. This enables measurements of the pH in vivo and in vitro in a wide range and thus the detection of acidic tissue in organisms due to its fluorescence properties. The fluorescence in the green range increases markedly as the pH falls. […] The fluorescence intensity was measured at 510 nm. […]

[3] = test system: shrimp (Palaemonetes argentinus); assay: in-vivo staining of a living organism with ageladine A
Description: The green curve (lowest straight curve) indicates fluorescence intensity values within the buffer solution outside of the shrimp, the red and blue curves (middle and upper curved curves) indicate fluorescence intensity values within the shrimp and thus, in a simple manner, easily recognizable and detectable acidic constituents of the shrimp.

[4] = detectable pH range of the fluorescent pH indicator; taken from probes.invitrogen.com handbook table; cited from earlier work

Row | stability of fluorescence under UV irradiation ([2]; despite UV irradiation) | SMILES | staining of cells [1] | stability of the stainings ([2]; cells, tissue, organisms incubated with ageladine A) | penetration into tissue ([3]; intact, living organisms, on account of lipophilic structure (bromination)) | in-vivo staining of tissue ([3]; shrimp incubated with ageladine A, irradiated with UV light) | PH RANGE [4]
1 | stable for hours | Nc1nc2ccnc(-c3cc(Br)c(Br)[nH]3)c2[nH]1 [ageladine A] | stained | stable over hours to days; also recorded: last for at least a plurality of days | penetrates very quickly and far into the tissue | acidic structures (mouth-digestive region) in the shrimp were stained | 
2 |  | O=S(=O)([O-])c1cc(O)c2ccc3c(S(=O)(=O)[O-])cc(S(=O)(=O)[O-])c4ccc1c2c34.[Na+].[Na+].[Na+] [HPTS (pyranine), pyranine] |  |  |  |  | 7.0-8.0
3 |  | O=c1c2cccc3c(NCCN4CCOCC4)ccc(c32)c2nc3ccccc3n12 [LysoSensor Green DND-189] |  |  |  |  | 4.5-6.0
